In patent US10051861B2, “N-arylamidine-substituted trifluoroethyl sulfide derivatives as acaricides and insecticides” (BAYER CROPSCIENCE AG, priority 2011, dated 2018):

system: greenhouse red spider mite (Tetranychus urticae); assay: Tetranychus urticae spray test, OP-resistant (TETRUR), bean leaf disks; type: in vivo; settings: Tetranychus urticae, foliar, 144 h, application rate 500 g/ha, after 6 days; read-out: efficacy (spider mites killed)
Procedure: After 6 days, the effect in % is determined.

SMILES	pest or weed control at 500 g/ha
CN/C(=N\c1cc(SCC(F)(F)F)c(Cl)cc1Cl)c1ccc(C(F)(F)F)nc1 [Ia-264]	90%
CN/C(=N\c1cc(SCC(F)(F)F)c(C)cc1C)c1cccc(Cl)c1 [Ia-265]	90%
N/C(=N\c1cc(SCC(F)(F)F)c(Cl)cc1Cl)c1ccc(Cl)cc1 [Ia-266]	90%
Cc1cc(C)c(SCC(F)(F)F)cc1/N=C(\NCC(F)(F)F)C1CCC1 [Ia-267]	90%
Cc1cc(F)c(/N=C(/c2cccnc2)N2CCC(F)(F)CC2)cc1SCC(F)(F)F [Ia-269]	90%
Cc1cc(F)c(/N=C(/c2ccc(Cl)cc2)N2CCC(F)(F)CC2)cc1SCC(F)(F)F [Ia-270]	90%
Cc1cc(C)c(SCC(F)(F)F)cc1/N=C1\SCC(=O)N1CC(F)(F)F [Ia-272]	100%
Cc1cc(Cl)c(/N=C2\SCC(=O)N2CC(F)(F)F)cc1SCC(F)(F)F [Ia-275]	100%
Cc1cc(F)c(/N=c2\scc(C3(Cl)CC3)n2CC(F)(F)F)cc1SCC(F)(F)F [Ia-276]	100%
Cc1cc(F)c(/N=C(\N)C2(Cl)CC2)cc1[S+]([O-])CC(F)(F)F (stereo not drawn) [Ib-22]	100%
CCN(C)/C(=N/c1cc([S+]([O-])CC(F)(F)F)c(C)cc1F)C(F)(F)F (stereo not drawn) [Ib-23]	90%
CN(C)/C(=N/c1cc([S+]([O-])CC(F)(F)F)c(Br)cc1Br)C(F)(F)F (stereo not drawn) [Ib-25]	100%
CN(C)/C(=N/c1cc([S+]([O-])CC(F)(F)F)c(Cl)cc1Cl)C(F)(F)F (stereo not drawn) [Ib-26]	100%
CN/C(=N\c1cc([S+]([O-])CC(F)(F)F)c(C)cc1F)c1cccnc1 (stereo not drawn) [Ib-28, N′-{2-Fluoro-4-methyl-5-[(2,2,2-trifluoroethyl)sulfinyl]phenyl}-N-methylpyridine-3-carboximidamide]	100%
Cc1cc(F)c(/N=C(/NCC2CC2)C(F)(F)F)cc1[S+]([O-])CC(F)(F)F (stereo not drawn) [Ib-29]	100%
Cc1cc(Cl)c(/N=C(\N)C(F)(F)C(F)(F)Cl)cc1[S+]([O-])CC(F)(F)F (stereo not drawn) [Ib-31]	100%
CN(C)/C(=N/c1cc([S+]([O-])CC(F)(F)F)c(Cl)cc1F)C(F)(F)F (stereo not drawn) [Ib-32]	100%
CCN(CC)/C(=N/c1cc([S+]([O-])CC(F)(F)F)c(C)cc1F)C(F)(F)F (stereo not drawn) [Ib-34]	100%

SMILES	pest or weed control at 500 g/ha
Cc1cc(F)c(/N=C(/NC2(C)CC2)C(F)(F)F)cc1[S+]([O-])CC(F)(F)F (stereo not drawn) [Ib-36]	100%
CN/C(=N\c1cc([S+]([O-])CC(F)(F)F)c(C)cc1F)c1ccc(Cl)cc1 (stereo not drawn) [Ib-37]	100%
CN/C(=N/c1cc([S+]([O-])CC(F)(F)F)c(Cl)cc1F)C(F)(F)F (stereo not drawn) [Ib-41]	90%
Cc1cc(F)c(/N=C(\N)c2ccccn2)cc1[S+]([O-])CC(F)(F)F (stereo not drawn) [Ib-45]	100%
CCN/C(=N\c1cc([S+]([O-])CC(F)(F)F)c(C)cc1F)C1CC1 (stereo not drawn) [Ib-46]	100%
Cc1cc(F)c(/N=C(/NC(C)(C)C)C(F)(F)F)cc1[S+]([O-])CC(F)(F)F (stereo not drawn) [Ib-50]	100%
Cc1cc(F)c(/N=C(/C2CC2)N(C)C)cc1[S+]([O-])CC(F)(F)F (stereo not drawn) [Ib-51]	100%
Cc1cc(F)c(/N=C2\CCCCN2C)cc1[S+]([O-])CC(F)(F)F (stereo not drawn) [Ib-52]	100%
Cc1cc(F)c(/N=C(\N)C2CC2)cc1[S+]([O-])CC(F)(F)F (stereo not drawn) [Ib-53]	100%
Cc1cc(F)c(/N=C(/NC2COC2)C(F)(F)F)cc1[S+]([O-])CC(F)(F)F (stereo not drawn) [Ib-54]	90%
Cc1cc(F)c(/N=C(\c2ccc(F)cc2)N(C)C)cc1[S+]([O-])CC(F)(F)F (stereo not drawn) [Ib-60]	90%
Cc1cc(F)c(/N=C(\c2ccc(C#N)cc2)N(C)C)cc1[S+]([O-])CC(F)(F)F (stereo not drawn) [Ib-61]	100%
Cc1cc(F)c(/N=C(\N)c2cccnc2)cc1[S+]([O-])CC(F)(F)F (stereo not drawn) [Ib-63]	100%
N/C(=N\c1cc([S+]([O-])CC(F)(F)F)c(Cl)cc1Cl)C1(Cl)CC1 (stereo not drawn) [Ib-64]	100%
Cc1cc(F)c(/N=C(\N)c2ccncn2)cc1[S+]([O-])CC(F)(F)F (stereo not drawn) [Ib-65]	100%
Cc1cc(F)c(/N=C(\c2cccc(F)c2)N(C)C)cc1[S+]([O-])CC(F)(F)F (stereo not drawn) [Ib-66]	90%
CN/C(=N/c1cc([S+]([O-])CC(F)(F)F)c(C)cc1F)c1cccc(F)c1 (stereo not drawn) [Ib-67]	90%
N/C(=N\c1cc([S+]([O-])CC(F)(F)F)c(Cl)cc1Cl)c1ccncn1 (stereo not drawn) [Ib-69]	100%

same assay, conditions: Tetranychus urticae, foliar, 144 h, read-out: efficacy (spider mites killed)

SMILES	pest or weed control at 500 g/ha
Cc1cc(F)c(/N=C2/NCCS2)cc1SCC(F)(F)F [Ia-238, 2-Fluoro-4-methyl-N-[1,3-thiazolidin-2-ylidene]-5-[(2,2,2-trifluoroethyl)sulfanyl]aniline]	100%
Cc1cc(F)c(/N=C2\NCCO2)cc1SCC(F)(F)F [Ia-243]	90%
COc1cc(C)c(SCC(F)(F)F)cc1/N=C(/c1ccc(Cl)cc1)N1CCOCC1 [Ia-268, N-[(4-Chlorophenyl)(morpholin-4-yl)methylene]-2-methoxy-4-methyl-5-[(2,2,2-trifluoroethyl)sulfanyl]aniline]	90%
